Data as given in ChEMBL document CHEMBL1201861, “Genomics of Drug Sensitity in Cancer screening data, Wellcome Trust Sanger Institute”.

Assays:
Experiment in all cases: cells
Format in all cases: functional, cell-based
Conditions in all cases: Homo sapiens
COLO-800 = system: COLO-800;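 also: growth inhibition of COLO-800 cells, read out with a cell viability assay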
Description: SANGER: Inhibition of human COLO-800 cell growth in a cell viability assay.

NCI-H226 = system: NCI-H226;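 also: cell viability read-out used to gauge growth inhibition of the cells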
Description: SANGER: Inhibition of human NCI-H226 cell growth in a cell viability assay.

DMS-114 = system: DMS-114
LB2241-RCC = system: LB2241-RCC;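 also: cell viability assay measuring how strongly the cultured human renal carcinoma line is prevented from growing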
Description: SANGER: Inhibition of human LB2241-RCC cell growth in a cell viability assay.

SF-126 = system: SF-126;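 also: growth inhibition of human SF126 cells, read out with a cell viability assay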
Description: SANGER: Inhibition of human SF126 cell growth in a cell viability assay.

HC-1 = system: HC-1;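 also: growth inhibition of HC-1 cells measured by a cell viability assay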
Description: SANGER: Inhibition of human HC-1 cell growth in a cell viability assay.

RKO = system: RKO;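 also: growth inhibition of human RKO cells, read out with a cell viability assay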
Description: SANGER: Inhibition of human RKO cell growth in a cell viability assay.

TGBC1TKB = system: TGBC1TKB;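 also: growth inhibition of TGBC1TKB cells, read out by a cell viability assay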
Description: SANGER: Inhibition of human TGBC1TKB cell growth in a cell viability assay.

TGBC24TKB = system: TGBC24TKB;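 also: growth inhibition of human TGBC24TKB cells, read out with a cell viability assay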
Description: SANGER: Inhibition of human TGBC24TKB cell growth in a cell viability assay.

KINGS-1 = system: KINGS-1;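 also: cell viability assay measuring suppression of KINGS-1 cell growth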
Description: SANGER: Inhibition of human KINGS-1 cell growth in a cell viability assay.

HCC1187 = system: HCC1187;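 also: growth inhibition of HCC1187 cells, read out with a cell viability assay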
Description: SANGER: Inhibition of human HCC1187 cell growth in a cell viability assay.

Mo = system: Mo
Description: SANGER: Inhibition of human Mo-T cell growth in a cell viability assay.

EM-2 = system: EM-2;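 also: growth inhibition of EM-2 cells, read out with a cell viability assay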
Description: SANGER: Inhibition of human EM-2 cell growth in a cell viability assay.

U-266 = system: U-266
Description: SANGER: Inhibition of human U-266 cell growth in a cell viability assay.

NEC8 = system: NEC8;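 also: growth inhibition of human NEC8 cells, read out by a cell viability assay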
Description: SANGER: Inhibition of human NEC8 cell growth in a cell viability assay.

SNB-75 = system: SNB-75;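 also: cell viability assay measuring growth inhibition of human SNB-75 cells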
Description: SANGER: Inhibition of human SNB75 cell growth in a cell viability assay.

CGTH-W-1 = system: CGTH-W-1;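 also: growth inhibition of human CGTH-W-1 cells measured by cell viability assay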
Description: SANGER: Inhibition of human CGTH-W-1 cell growth in a cell viability assay.

MC116 = system: MC116;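 also: growth inhibition of MC116 cells, read out with a cell viability assay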
Description: SANGER: Inhibition of human MC116 cell growth in a cell viability assay.

NCI-H747 = system: NCI-H747;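 also: growth inhibition of human NCI-H747 cells, read out by a cell viability assay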
Description: SANGER: Inhibition of human NCI-H747 cell growth in a cell viability assay.

NCI-H1650 = system: NCI-H1650;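 also: growth inhibition of human NCI-H1650 cells measured by a cell viability assay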
Description: SANGER: Inhibition of human NCI-H1650 cell growth in a cell viability assay.

LS-1034 = system: LS-1034
Description: SANGER: Inhibition of human LS-1034 cell growth in a cell viability assay.

CTV-1 = system: CTV-1;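 also: growth inhibition of the cell line, read out with a cell viability assay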
Description: SANGER: Inhibition of human CTV-1 cell growth in a cell viability assay.

DSH1 = system: DSH1;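 also: growth inhibition of human DSH1 cells, measured with a cell viability readout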
Description: SANGER: Inhibition of human DSH1 cell growth in a cell viability assay.

Becker = system: Becker;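 also: growth inhibition of Becker cells, read out with a cell viability assay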
Description: SANGER: Inhibition of human Becker cell growth in a cell viability assay.

BB30-HNC = system: BB30-HNC;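 also: growth inhibition of the cultured cell line, read out by a cell viability assay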
Description: SANGER: Inhibition of human BB30-HNC cell growth in a cell viability assay.

CTB-1 = system: CTB-1
Description: SANGER: Inhibition of human CTB-1 cell growth in a cell viability assay.

COLO-668 = system: COLO-668
Description: SANGER: Inhibition of human COLO-668 cell growth in a cell viability assay.

KNS-81-FD = system: KNS-81-FD;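 also: growth inhibition of KNS-81-FD cells, read out with a cell viability assay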
Description: SANGER: Inhibition of human KNS-81-FD cell growth in a cell viability assay.

RH-1 = system: RH-1;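 also: growth inhibition of human RH-1 cells, read out with a cell viability assay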
Description: SANGER: Inhibition of human RH-1 cell growth in a cell viability assay.

COLO-320-HSR = system: COLO-320-HSR;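 also: growth inhibition of COLO-320-HSR cells, determined with a cell viability assay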
Description: SANGER: Inhibition of human COLO-320-HSR cell growth in a cell viability assay.

L-428 = system: L-428
Description: SANGER: Inhibition of human L-428 cell growth in a cell viability assay.

TE-8 = system: TE-8;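 also: growth inhibition of TE-8 cells, measured with a cell viability readout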
Description: SANGER: Inhibition of human TE-8 cell growth in a cell viability assay.

A101D = system: A101D;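 also: growth inhibition of the cell line, measured with a viability assay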
Description: SANGER: Inhibition of human A101D cell growth in a cell viability assay.

SK-N-DZ = system: SK-N-DZ;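 also: growth inhibition of the cancer cell line, read out through a viability assay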
Description: SANGER: Inhibition of human SK-N-DZ cell growth in a cell viability assay.

GB-1 = system: GB-1;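 also: growth of GB-1 cells judged by a viability assay, IC50 marks the concentration inhibiting growth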
Description: SANGER: Inhibition of human GB-1 cell growth in a cell viability assay.

NB10 = system: NB10;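 also: growth inhibition of NB10 cells, read out by a cell viability assay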
Description: SANGER: Inhibition of human NB10 cell growth in a cell viability assay.

LAMA-84 = system: LAMA-84;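 also: growth inhibition of LAMA-84 cells, read out with a cell viability assay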
Description: SANGER: Inhibition of human LAMA-84 cell growth in a cell viability assay.

MFM-223 = system: MFM-223
Description: SANGER: Inhibition of human MFM-223 cell growth in a cell viability assay.

HOP-62 = system: HOP-62;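 also: cell growth inhibition determined with a viability assay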
Description: SANGER: Inhibition of human HOP-62 cell growth in a cell viability assay.

A388 = system: A388;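 also: growth inhibition of human A388 cells, read out with a cell viability assay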
Description: SANGER: Inhibition of human A388 cell growth in a cell viability assay.

LB1047-RCC = system: LB1047-RCC;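 also: inhibition of cell growth, determined with a cell viability assay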
Description: SANGER: Inhibition of human LB1047-RCC cell growth in a cell viability assay.

HDLM-2 = system: HDLM-2;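 also: cell viability assay measuring suppression of HDLM-2 proliferation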
Description: SANGER: Inhibition of human HDLM-2 cell growth in a cell viability assay.

SF-539 = system: SF-539;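 also: Read-out is a cell viability assay, with IC50 reflecting inhibition of cell growth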
Description: SANGER: Inhibition of human SF539 cell growth in a cell viability assay.

GR-ST = system: GR-ST
Description: SANGER: Inhibition of human GR-ST cell growth in a cell viability assay.

TE-12 = system: TE-12;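 also: growth inhibition of TE-12 cells, read out by a cell viability assay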
Description: SANGER: Inhibition of human TE-12 cell growth in a cell viability assay.

AM-38 = system: AM-38;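 also: growth inhibition of AM-38 cells of human origin, read out by a cell viability assay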
Description: SANGER: Inhibition of human AM-38 cell growth in a cell viability assay.

TE-9 = system: TE-9;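 also: cell growth inhibition, measured with a cell viability readout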
Description: SANGER: Inhibition of human TE-9 cell growth in a cell viability assay.

ES1 = system: ES1;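 also: growth inhibition of ES1 cells, read out with a cell viability assay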
Description: SANGER: Inhibition of human ES1 cell growth in a cell viability assay.

NCI-H82 = system: NCI-H82;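 also: growth inhibition of NCI-H82 cells, measured with a cell viability readout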
Description: SANGER: Inhibition of human NCI-H82 cell growth in a cell viability assay.

CAS-1 = system: CAS-1;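 also: growth inhibition of CAS-1 cells, measured with a cell viability assay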
Description: SANGER: Inhibition of human CAS-1 cell growth in a cell viability assay.

HD-MY-Z = system: HD-MY-Z;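 also: growth inhibition of HD-MY-Z cells, read out with a cell viability assay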
Description: SANGER: Inhibition of human HD-MY-Z cell growth in a cell viability assay.

ALL-PO = system: ALL-PO;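 also: growth inhibition of ALL-PO cells, read out by a cell viability assay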
Description: SANGER: Inhibition of human ALL-PO cell growth in a cell viability assay.

NCI-H1395 = system: NCI-H1395;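 also: cell viability assay read-out quantifying reduced proliferation of human NCI-H1395 cells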
Description: SANGER: Inhibition of human NCI-H1395 cell growth in a cell viability assay.

SJSA-1 = system: SJSA-1;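 also: growth inhibition of human SJSA-1 cells, read out through a cell viability measurement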
Description: SANGER: Inhibition of human SJSA-1 cell growth in a cell viability assay.

KNS-42 = system: KNS-42;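 also: growth inhibition of KNS-42 cells, read out with a cell viability assay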
Description: SANGER: Inhibition of human KNS-42 cell growth in a cell viability assay.

SNU-C2B = system: SNU-C2B;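 also: cell viability readout used to measure compound-driven suppression of SNU-C2B cell proliferation, IC50 marking half-maximal growth inhibition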
Description: SANGER: Inhibition of human SNU-C2B cell growth in a cell viability assay.

NCI-H1355 = system: NCI-H1355;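 also: growth inhibition of human NCI-H1355 cells, read out by a cell viability assay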
Description: SANGER: Inhibition of human NCI-H1355 cell growth in a cell viability assay.

MSTO-211H = system: MSTO-211H
Description: SANGER: Inhibition of human MSTO-211H cell growth in a cell viability assay.

KGN = system: KGN
Description: SANGER: Inhibition of human KGN cell growth in a cell viability assay.

## NC(=O)c1ncn([C@@H]2O[C@H](COP(=O)(O)O)[C@@H](O)[C@H]2O)c1N
COLO-800
  IC50: > 2000 µM
NCI-H226
  IC50: > 2000 µM
DMS-114
  IC50: 1580 µM
LB2241-RCC
  IC50: 1370 µM
SF-126
  IC50: > 2000 µM
HC-1
  IC50: 1160 µM
RKO
  IC50: 830 µM
TGBC1TKB
  IC50: 814 µM
TGBC24TKB
  IC50: 736 µM
KINGS-1
  IC50: > 2000 µM
HCC1187
  IC50: 1140 µM
Mo
  IC50: > 2000 µM
EM-2
  IC50: 230 µM
U-266
  IC50: > 2000 µM
NEC8
  IC50: > 2000 µM
SNB-75
  IC50: 1400 µM
CGTH-W-1
  IC50: > 2000 µM
MC116
  IC50: 1290 µM
NCI-H747
  IC50: 1650 µM
NCI-H1650
  IC50: > 2000 µM
LS-1034
  IC50: > 2000 µM
CTV-1
  IC50: 266 µM
DSH1
  IC50: > 2000 µM
Becker
  IC50: > 2000 µM
BB30-HNC
  IC50: 214 µM
CTB-1
  IC50: 646 µM
COLO-668
  IC50: > 2000 µM
KNS-81-FD
  IC50: > 2000 µM
RH-1
  IC50: > 2000 µM
COLO-320-HSR
  IC50: 772 µM
L-428
  IC50: > 2000 µM
TE-8
  IC50: 828 µM
A101D
  IC50: > 2000 µM
SK-N-DZ
  IC50: 1020 µM
GB-1
  IC50: > 2000 µM
NB10
  IC50: > 2000 µM
LAMA-84
  IC50: 435 µM
MFM-223
  IC50: 1160 µM
HOP-62
  IC50: > 2000 µM
A388
  IC50: > 2000 µM
LB1047-RCC
  IC50: > 2000 µM
HDLM-2
  IC50: 1780 µM
SF-539
  IC50: > 2000 µM
GR-ST
  IC50: 431 µM
TE-12
  IC50: > 2000 µM
AM-38
  IC50: 1030 µM
TE-9
  IC50: > 2000 µM
ES1
  IC50: > 2000 µM
NCI-H82
  IC50: 993 µM
CAS-1
  IC50: > 2000 µM
HD-MY-Z
  IC50: 1950 µM
ALL-PO
  IC50: 755 µM
NCI-H1395
  IC50: > 2000 µM
SJSA-1
  IC50: 949 µM
KNS-42
  IC50: > 2000 µM
SNU-C2B
  IC50: > 2000 µM
NCI-H1355
  IC50: > 2000 µM
MSTO-211H
  IC50: 1740 µM
KGN
  IC50: 630 µM
